The results in this text go back to patent US20260242390A1, “TOTAL SYNTHESES OF PORTIMINE A AND ANALOGUES THEREOF AS SMALL MOLECULE MODULATORS OF NMD3” (priority 2023, published 2026).

In one assay the test system is NMD3 mRNA. Description: NMD3 mRNA level in cells. The format is cell-based, human. Here is the method:
FIG. 6. Portimine A inhibits S phase entry in Jurkat cells. Portimine A downregulates NMD3 at protein level but upregulates in mRNA level in cells, as well as some essential apoptosis proteins. […] Protein degradation of p53, Mcl1, Bid, Bim, Noxa can be rescued by MG132 or Epoxomicin. (B) NMD3 mRNA increased after PA treatment, but not ePA control compound. Jurkat cells were treated with indicated compounds for 24 hr; Cells were then fixed and perform Propidium Iodide staining.
• 1) Portimine A and its functional analogs show stereo-selective acute toxicity in cancer cells (FIG. 1). […] (B) Structure of portimine related analogs: phenyl-portimine A (Ph-PA, 36) and epi-portimine A (ePA, 38). Structure of fully functionalized portimine A-based epimeric probe pair: portimine A-diazirine-alkyne (PA-DA, 35-2) and epi-portimine A-diazirine-alkyne (ePA-DA, 35-1). (C) Cell viability analysis of portimine A and analogs. Jurkat cells were treated with increasing concentrations of portimine A and analogs for 24 hours. All presented data as mean of biological replicated experiments (n=3). […] Jurkat cells were treated with portimine A or analogs for 12 hours at 10 nM. […] Cell lysates were fractionated by sucrose gradient (5-50%) and each fraction were analyzed by western blot. eIF6 levels increase in 60S subunit fraction and decrease in ribosome-free fractions after PA treatment. […]

A further assay has as its system HCC1806. Description: Broad cell line profiling, HCC1806. The settings on record: Homo sapiens; HCC1806, Acantholytic Squamous Carcinoma; read-out: PA IC50. The format is cell-based. The text has this:
• A panel of human and mouse cancer cell types used to assess the breadth of PA activity, including multiple therapy resistant metastatic mesenchymal tumor cell lines and primary glioblastoma patient-derived metastatic stem/tumor initiating cell populations.

For orientation: IC50 means the concentration at which inhibition is half-maximal.

With `C=CC1=C[C@@H]2[C@@H]3O[C@]4(CC[C@H](O4)C(C)C[C@@H](O)C3=O)CC(O)C3=NCC[C@@]32CC1` (some centres unmarked) [PA, portimine A], the “NMD3 mRNA” value in the assay on NMD3 mRNA was “increased”. In addition, the half-maximal inhibitory concentration (IC50) with HCC1806 was 0.72 nM.
